Test results taken from patent US4192896A, “Method of using dialkylphenols in the treatment of mycoplasma diseases” (priority 1979, dated 1980).

How the values were obtained:
M. pneumoniae [1] = test: Relative activity of hamster tracheal explants infected with M. pneumoniae; type: cell-based; details: for Relative Activity Days Following Infection With M. Pneumoniae / Relative Activity 7 days post infection: infecting titer 6 × 10^6 CFU/ml; for Relative Activity 7 days post infection: Table 4
Procedure: (§1) Adult golden hamsters (approximately 140 g. male and female) were used as the tissue source. Animals appearing to be disease-free were selected. Tracheas were removed aseptically and sliced into rings. The rings were rinsed and then transfered into sterile Petri dishes containing a shallow layer of minimal essential medium (MEM, with glutamine, NaHCO3, 10% horse serum and 500 units of penicillin G/ml). These organ cultures were incubated for 24 hours at 36° C. in 5% carbon dioxide and then scored for "relative activity" (RA), a measure of explant viability. "Relative Activity" (0 to 300) is the product of the percentage of the epithelial layer which is intact (0 to 100) and the relative vigor of ciliary beating (0 to 3).
(§2) The trachea rings were infected with M. pneumonia, strain PI 1428 (originally obtained from Dr. Robert Chanock, National Institutes of Health, Bethesda, Md.) which was used in the 10th to 12th passage and was grown on G-199 medium. Tracheal explants were infected with logarithmically growing cells using methods described by Gabridge, et al. Except where otherwise noted, groups of from 3 to 6 rings were preincubated for one hour in MEM with or without an appropriate amount of 2,4-dimethylphenol prior to the addition of mycoplasmas. Following exposure to M. pneumoniae for two hours, the rings were rinsed twice in phosphate buffered saline and then placed in a sterile Petri dish containing MEM and, where indicated, the required amount of 2,4-dimethylphenol or 2,4-DMP as used herein. Cultures were incubated at 36° in 5% carbon dioxide and scored daily for RA.
(§3) Infection Studies: M. pneumoniae attaches to the surface (as used herein the surface refers to in luminal epithelial lining) of the tracheal tissue within an hour or two following exposure. Decreases in the vigor of ciliary activity and loss of epithelial cells are evident within 24 to 48 hours post-infection. In most cases, little or no ciliary activity remains by the sixth or seventh day.
(§4) Time Course: In the studies reported thus far, tracheal explants were pretreated with 2,4-DMP for one hour before exposure to M. pneumoniae. Some insight into the nature, that is, the site or mode of action, of this protective phenomenon may be gained by altering the time at which 2,4-DMP is added to the culture media.

M. pneumoniae [2] = test: Tetrazolium reduction by hamster tracheal explants infected with M. pneumoniae; type: cell-based; details: for Tetrazolium Reduction 7 days post infection: Table 4, infecting titer 6 × 10^6 CFU/ml
Procedure: as §2, §4

[3] = tested on: uninfected hamster tracheal explants; test: Electron microscopic and histopathic examination of uninfected hamster tracheal explants exposed to 2,4-DMP; type: cell-based, golden hamster; details: 10^-3 and 10^-4 M
Procedure: as §1

M. pneumoniae [4] = test: Surface morphology of tracheal rings exposed to M. pneumoniae; type: cell-based; details: at least 10^-9 M
Procedure: as §2, §3

M. pneumoniae [5] = test: Protection of tracheal explants against the M. pneumoniae infective process (overall, in words); type: cell-based
Procedure: as §1, §2, §4

[6] = culture A, 2,4 DMP added at -1 hours
[7] = culture B, 2,4 DMP added at 0 hours
[8] = culture C, 2,4 DMP added at 1 hours
[9] = culture D, 2,4 DMP added at 2 hours
[10] = culture E, 2,4 DMP added at 6 hours
[11] = culture F, 2,4 DMP added at 24 hours
[12] = culture G, 2,4 DMP added at 48 hours
[13] = culture H, 2,4 DMP added at 72 hours

## Cc1ccc(O)c(C)c1 [2,4-DMP, 2,4-dimethylphenol]
M. pneumoniae [1]; 10^-8 moles/liter, day 1
  Relative Activity Days Following Infection With M. Pneumoniae: 270 ± 0
M. pneumoniae [1]; 10^-8 moles/liter, day 2
  Relative Activity Days Following Infection With M. Pneumoniae: 270 ± 0
M. pneumoniae [1]; 10^-8 moles/liter, day 3
  Relative Activity Days Following Infection With M. Pneumoniae: 260 ± 16
M. pneumoniae [1]; 10^-8 moles/liter, day 4
  Relative Activity Days Following Infection With M. Pneumoniae: 260 ± 16
M. pneumoniae [1]; 10^-8 moles/liter, day 5
  Relative Activity Days Following Infection With M. Pneumoniae: 260 ± 16
M. pneumoniae [1]; 10^-8 moles/liter, day 6
  Relative Activity Days Following Infection With M. Pneumoniae: 255 ± 16
M. pneumoniae [1]; 10^-8 moles/liter, day 7
  Relative Activity Days Following Infection With M. Pneumoniae: 255 ± 16
M. pneumoniae [1]; 10^-10 moles/liter, day 1
  Relative Activity Days Following Infection With M. Pneumoniae: 260 ± 16
M. pneumoniae [1]; 10^-10 moles/liter, day 2
  Relative Activity Days Following Infection With M. Pneumoniae: 255 ± 16
M. pneumoniae [1]; 10^-10 moles/liter, day 3
  Relative Activity Days Following Infection With M. Pneumoniae: 240 ± 19
M. pneumoniae [1]; 10^-10 moles/liter, day 4
  Relative Activity Days Following Infection With M. Pneumoniae: 175 ± 23
M. pneumoniae [1]; 10^-10 moles/liter, day 5
  Relative Activity Days Following Infection With M. Pneumoniae: 150 ± 19
M. pneumoniae [1]; 10^-10 moles/liter, day 6
  Relative Activity Days Following Infection With M. Pneumoniae: 135 ± 16
M. pneumoniae [1]; 10^-10 moles/liter, day 7
  Relative Activity Days Following Infection With M. Pneumoniae: 115 ± 23
M. pneumoniae [1]; 10^-6 moles/liter
  Relative Activity 7 days post infection: 255 ± 16
M. pneumoniae [1]; 10^-7 moles/liter
  Relative Activity 7 days post infection: 255 ± 16
M. pneumoniae [1]; 10^-8 moles/liter
  Relative Activity 7 days post infection: 260 ± 10
M. pneumoniae [1]; 10^-9 moles/liter
  Relative Activity 7 days post infection: 263 ± 12
M. pneumoniae [1]; 10^-10 moles/liter
  Relative Activity 7 days post infection: 114 ± 22
M. pneumoniae [1]; 10^-14 moles/liter
  Relative Activity 7 days post infection: 125 ± 23
M. pneumoniae [1]
  Relative Activity 7 days post infection: 124 ± 18
M. pneumoniae [1]; at least 10^-9 M
  RA of rings exposed to M. pneumoniae compared with uninfected controls: indistinguishable from uninfected controls
M. pneumoniae [1]; [6]
  Relative Activity 7 Days Following Infection With M. Pneumoniae: 268 ± 6
M. pneumoniae [1]; [7]
  Relative Activity 7 Days Following Infection With M. Pneumoniae: 268 ± 6
M. pneumoniae [1]; [8]
  Relative Activity 7 Days Following Infection With M. Pneumoniae: 265 ± 8
M. pneumoniae [1]; [9]
  Relative Activity 7 Days Following Infection With M. Pneumoniae: 220 ± 23
M. pneumoniae [1]; [10]
  Relative Activity 7 Days Following Infection With M. Pneumoniae: 188 ± 23
M. pneumoniae [1]; [11]
  Relative Activity 7 Days Following Infection With M. Pneumoniae: 98 ± 16
M. pneumoniae [1]; [12]
  Relative Activity 7 Days Following Infection With M. Pneumoniae: 95 ± 12
M. pneumoniae [1]; [13]
  Relative Activity 7 Days Following Infection With M. Pneumoniae: 92 ± 15
M. pneumoniae [2]; 10^-8 moles/liter
  Tetrazolium Reduction 7 days post infection: 1.066 ± 0.035
M. pneumoniae [2]; 10^-9 moles/liter
  Tetrazolium Reduction 7 days post infection: 1.016 ± 0.029
M. pneumoniae [2]; 10^-10 moles/liter
  Tetrazolium Reduction 7 days post infection: 0.543 ± 0.142
M. pneumoniae [2]; 10^-22 moles/liter (so in the source)
  Tetrazolium Reduction 7 days post infection: 0.453 ± 0.033
M. pneumoniae [2]; at least 10^-9 M
  ability to reduce tetrazolium of rings exposed to M. pneumoniae compared with uninfected controls: indistinguishable from uninfected controls
M. pneumoniae [2]; [6]
  Tetrazolium Reduction 7 Days Following Infection With M. Pneumoniae: 1.071 ± 0.065 OD/mg
M. pneumoniae [2]; [7]
  Tetrazolium Reduction 7 Days Following Infection With M. Pneumoniae: 1.068 ± 0.050 OD/mg
M. pneumoniae [2]; [8]
  Tetrazolium Reduction 7 Days Following Infection With M. Pneumoniae: 1.062 ± 0.039 OD/mg
M. pneumoniae [2]; [9]
  Tetrazolium Reduction 7 Days Following Infection With M. Pneumoniae: 0.893 ± 0.055 OD/mg
M. pneumoniae [2]; [10]
  Tetrazolium Reduction 7 Days Following Infection With M. Pneumoniae: 0.722 ± 0.032 OD/mg
M. pneumoniae [2]; [11]
  Tetrazolium Reduction 7 Days Following Infection With M. Pneumoniae: 0.386 ± 0.030 OD/mg
M. pneumoniae [2]; [12]
  Tetrazolium Reduction 7 Days Following Infection With M. Pneumoniae: 0.379 ± 0.051 OD/mg
M. pneumoniae [2]; [13]
  Tetrazolium Reduction 7 Days Following Infection With M. Pneumoniae: 0.381 ± 0.048 OD/mg
[3]
  electron microscopic and histopathic examination of epithelium: destruction of their epithelium
M. pneumoniae [4]
  surface morphology of rings exposed to M. pneumoniae compared with uninfected controls: indistinguishable from uninfected controls
M. pneumoniae [5]; 2,4-DMP withheld until attachment is essentially complete
  protective effects on delayed addition: significantly reduced or abolished completely
M. pneumoniae [5]; concentrations less than or equal to 10^-10 M
  alteration of the infectious process: failed to alter the infectious process
M. pneumoniae [5]; conditions of these studies and at the concentrations tested
  inhibiting or altering the course of the infective process, relative to the other dimethylphenol isomers: more effective than any of the other isomers
M. pneumoniae [5]; very low concentrations in the culture media
  effect on the course of infection of explants exposed to M. pneumoniae: dramatically alters the usual course of events
